Source: US20140051918A1, “LAPAROSCOPIC GASTRIC BAND WITH ACTIVE AGENTS” (Allergan, Inc., priority 2009, published 2014)
Ends that are not written are not given here.

B1: Cholecystokinin (peptide, UniProt P06307 21-115, looked up)
Cholecystokinin: QPVPPADPAGSGLQRAEEAPRRQLRVSQRTDGESRAHLGALLARYIQQARKAPSGRMSIVKNLQNLDPSHRISDRDYMGWMDFGRRSAEEYEYPS
modifications: Cholecystokinin
notes: hormone that suppresses appetite when administered with or without gastric distension
B2: Ciliary neuro-trophic factor (protein, UniProt P26441 1-200, looked up)
Ciliary neurotrophic factor: MAFTEHSPLTPHRRDLCSRSIWLARKIRSDLTALTESYVKHQGLNKNINLDSADGMPVASTDQWSELTEAERLQENLQAYRTFHVLLARLLEDQQVHFTPTEGDFHQAIHTLLLQVAAFAYQIEELMILLEYKIPRNEADGMPINVGDGGLFEKKLWGLKVLQELSQWTVRSIHDLRFISSHQTGIPARGSHYIANNKKM

Test: Patient examples: laparoscopic gastric band releasing an active agent, with weight loss, appetite and blood sugar control reported
Assay type: in vivo, human
Conditions: 322 pounds; for weight lost by the patient: 5'11", within 12 months; for weight lost by the patient / appetite as reported by the patient: gastric band containing the agent, released to a goal plasma concentration over 3-24 months
From the text: (§1) A patient, having a body weight of 322 pounds and a height of 5′11″, complains to their physician that they have tried unsuccessfully to lose weight over the past 15 years and is concerned about the effect their excess weight may have on their health. […] A reservoir containing glucagon like peptide 1 (GLP-1), according to any of the embodiments of this application may also be utilized.
as §1, with “oxyntomodulin (OXM),” for “glucagon like peptide 1 (GLP-1),”, “utilized. An injection, liquid, pill, spray, inhalant, patch, or oral substance such as a gum containing oxyntomodulin (OXM) may also be used.” for “utilized.”
A patient, having a body weight of 322 pounds and a height of 5′11″, complains to their physician that they have tried unsuccessfully to lose weight over the past 15 years and is concerned about the effect their excess weight may have on their health.
as §1, with “Pancreatic Peptide (PP),” for “glucagon like peptide 1 (GLP-1),”, “utilized. An injection, liquid, pill, spray, inhalant, patch, or oral substance such as a gum containing Pancreatic Peptide (PP) may also be used.” for “utilized.”
as §1, with “Insulin,” for “glucagon like peptide 1 (GLP-1),”, “utilized. An injection, liquid, pill, spray, inhalant, patch, or oral substance such as a gum containing Insulin may also be used.” for “utilized.”
as §1, with “Leptin,” for “glucagon like peptide 1 (GLP-1),”, “utilized. An injection, liquid, pill, spray, inhalant, patch, or oral substance such as a gum containing Leptin may also be used. […] In the case of a female patient the goal plasma concentrations would be [10-20 ng/mL]p.” for “utilized.”
as §1, with “Amylin,” for “glucagon like peptide 1 (GLP-1),”, “utilized. An injection, liquid, pill, spray, inhalant, patch, or oral substance such as a gum containing Amylin may also be used.” for “utilized.”
as §1, with “Cholecystokinin (CCK),” for “glucagon like peptide 1 (GLP-1),”, “utilized. An injection, liquid, pill, spray, inhalant, patch, or oral substance such as a gum containing Cholecystokinin (CCK) may also be used.” for “utilized.”

| Molecule | weight lost by the patient [pounds] | appetite as reported by the patient | blood sugar control as reported by the patient (gastric band containing Insulin, released to plasma concentrations of 5-30 μU/mL over 3-24 months) |
| --- | --- | --- | --- |
| PYY: satiety inducing peptide hormone [Peptide Y-Y] | 58 | marked suppression of appetite |  |
| oxyntomodulin [OXM] | 58 | marked suppression of appetite |  |
| Cocaine-Amphetamine Regulated Transcript [CART] | 58 | marked suppression of appetite |  |
| Pancreatic Peptide (APLEPVYPGDNATPEQMAQYAADLRRYINMLTRPRY; ends and bridges not checked; UniProt P01298 30-65, looked up) [PP, satiety inducing peptide hormone] | 58 | marked suppression of appetite |  |
| Insulin |  |  | euglycemic effects, or better control by their body of blood sugars |
| Leptin | 58 | marked suppression of appetite |  |
| Amylin (KCNTATCATQRLANFLVHSSNNFGAILSSTNVGSNTY; not fully specified (C-terminus, bridges); cysteine pairing not given here; UniProt P10997 34-70, looked up) [satiety inducing peptide hormone] | 58 | marked suppression of appetite |  |
| glucagon like peptide 1 (HAEGTFTSDVSSYLEGQAAKEFIAWLVKGR; ends and bridges not checked; UniProt P01275 98-127, looked up) [GLP-1, satiety inducing peptide hormone] | 58 | marked suppression of appetite |  |
| B1 | 58 | marked suppression of appetite |  |
| B2 | 58 | marked suppression of appetite |  |
